Reference: paper PMC5513037, “Examining the influence of specificity ligands and ATP-competitive ligands on the overall effectiveness of bivalent kinase inhibitors” (Proteome Science, 2017)

Assays:
Test in all cases: KAM-matrix competition in K562 lysate;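 on 0.001 uM KAM: median log10 fold change of treatment over DMSO control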;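 on 0.01 uM KAM: median log10 fold change of treatment over DMSO control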;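 on 0.1 uM KAM: median log10 fold change of treatment over DMSO control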;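 on 1 uM KAM: median log10 fold change of treatment over DMSO control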;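 on 10 uM KAM: median log10 fold change of treatment over DMSO control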
Assay type in all cases: binding
[1] = biological target: T1, GAK (Homo sapiens, UniProt O14976)
T1 construct: endogenous in cells; host or cells: K562 cell lysate
T1 sequence (O14976 1-1311): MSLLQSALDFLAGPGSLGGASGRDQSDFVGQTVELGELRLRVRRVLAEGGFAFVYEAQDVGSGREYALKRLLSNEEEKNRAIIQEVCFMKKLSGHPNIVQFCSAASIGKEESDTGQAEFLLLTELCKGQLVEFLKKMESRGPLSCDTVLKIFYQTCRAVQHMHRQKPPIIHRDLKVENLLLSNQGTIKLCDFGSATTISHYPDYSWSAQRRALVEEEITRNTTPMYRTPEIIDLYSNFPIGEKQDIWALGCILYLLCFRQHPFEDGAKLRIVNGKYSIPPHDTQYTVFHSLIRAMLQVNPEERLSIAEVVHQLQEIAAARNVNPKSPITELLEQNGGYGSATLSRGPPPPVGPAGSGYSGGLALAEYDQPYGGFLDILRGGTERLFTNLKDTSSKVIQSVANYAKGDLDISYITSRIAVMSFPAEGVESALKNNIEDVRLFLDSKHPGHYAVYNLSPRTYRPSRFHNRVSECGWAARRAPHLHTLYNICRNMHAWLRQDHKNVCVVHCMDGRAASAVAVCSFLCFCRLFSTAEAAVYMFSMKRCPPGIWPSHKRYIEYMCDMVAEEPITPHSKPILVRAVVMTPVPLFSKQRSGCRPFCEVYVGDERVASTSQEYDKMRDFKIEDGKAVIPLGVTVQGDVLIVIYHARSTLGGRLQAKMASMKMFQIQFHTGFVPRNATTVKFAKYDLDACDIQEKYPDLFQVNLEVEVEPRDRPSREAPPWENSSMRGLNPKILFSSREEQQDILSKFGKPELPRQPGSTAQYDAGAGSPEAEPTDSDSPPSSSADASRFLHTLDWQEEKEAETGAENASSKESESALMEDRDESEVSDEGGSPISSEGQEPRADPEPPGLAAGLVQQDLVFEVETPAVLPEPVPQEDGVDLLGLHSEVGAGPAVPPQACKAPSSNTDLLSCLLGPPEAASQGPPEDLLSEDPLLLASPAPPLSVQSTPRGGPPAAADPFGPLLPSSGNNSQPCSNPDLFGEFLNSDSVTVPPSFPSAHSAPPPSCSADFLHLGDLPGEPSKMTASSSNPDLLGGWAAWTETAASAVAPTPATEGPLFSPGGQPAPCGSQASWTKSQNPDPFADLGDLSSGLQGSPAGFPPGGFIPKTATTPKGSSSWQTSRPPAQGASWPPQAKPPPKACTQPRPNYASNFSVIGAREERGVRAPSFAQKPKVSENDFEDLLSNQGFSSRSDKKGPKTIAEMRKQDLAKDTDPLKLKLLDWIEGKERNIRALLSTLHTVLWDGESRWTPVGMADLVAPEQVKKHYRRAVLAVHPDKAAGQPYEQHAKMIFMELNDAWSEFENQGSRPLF
Experimental: (§1) Supplement 12953_2017_125_MOESM1_ESM.zip/MS_Supp Info.xlsx, sheet "KAM" | column: 10 uM KAM; 1 uM KAM; 0.1 uM KAM; 0.01 uM KAM; 0.001 uM KAM; RB50

[2] = biological target: T2, BMPR1A (Homo sapiens, UniProt P36894)
T2 construct: endogenous in cells; host or cells: K562
Experimental: as §1

[3] = biological target: T3, DDR1 (Homo sapiens, UniProt Q08345)
T3 construct: endogenous in cells; host or cells: K562
Experimental: as §1

[4] = biological target: T4, SIK3 (Homo sapiens, UniProt Q9Y2K2);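 on 0.001 uM KAM: median log10 fold change of treatment over DMSO control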;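 on 0.01 uM KAM: median log10 fold change of treatment over DMSO control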;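 on 0.1 uM KAM: median log10 fold change of treatment over DMSO control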;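 on 1 uM KAM: median log10 fold change of treatment over DMSO control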;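 on 10 uM KAM: median log10 fold change of treatment over DMSO control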
T4 construct: endogenous in cells; host or cells: K562
Experimental: as §1

[5] = biological target: T5, BUB1 (Homo sapiens, UniProt O43683);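 on 0.001 uM KAM: median log10 fold change of treatment over DMSO control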;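 on 0.01 uM KAM: median log10 fold change of treatment over DMSO control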;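 on 0.1 uM KAM: median log10 fold change of treatment over DMSO control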;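 on 1 uM KAM: median log10 fold change of treatment over DMSO control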;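 on 10 uM KAM: median log10 fold change of treatment over DMSO control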
T5 construct: endogenous in cells; host or cells: K562
Experimental: as §1

[6] = biological target: T6, MELK (Homo sapiens, UniProt Q14680)
T6 construct: endogenous in cells; host or cells: K562
Experimental: as §1

[7] = biological target: T7, ACTR2 (Homo sapiens, UniProt P61160);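 on 0.001 uM KAM: median log10 fold change of treatment over DMSO control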;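 on 0.01 uM KAM: median log10 fold change of treatment over DMSO control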;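 on 0.1 uM KAM: median log10 fold change of treatment over DMSO control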;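 on 1 uM KAM: median log10 fold change of treatment over DMSO control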;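 on 10 uM KAM: median log10 fold change of treatment over DMSO control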
T7 construct: endogenous in cells; host or cells: K562
Experimental: as §1

[8] = read-out: RB50 (the source's name)
[9] = KAM 0.001-10 uM, read-out: RB50 (the source's name)

T4 sequence (Q9Y2K2 whole entry): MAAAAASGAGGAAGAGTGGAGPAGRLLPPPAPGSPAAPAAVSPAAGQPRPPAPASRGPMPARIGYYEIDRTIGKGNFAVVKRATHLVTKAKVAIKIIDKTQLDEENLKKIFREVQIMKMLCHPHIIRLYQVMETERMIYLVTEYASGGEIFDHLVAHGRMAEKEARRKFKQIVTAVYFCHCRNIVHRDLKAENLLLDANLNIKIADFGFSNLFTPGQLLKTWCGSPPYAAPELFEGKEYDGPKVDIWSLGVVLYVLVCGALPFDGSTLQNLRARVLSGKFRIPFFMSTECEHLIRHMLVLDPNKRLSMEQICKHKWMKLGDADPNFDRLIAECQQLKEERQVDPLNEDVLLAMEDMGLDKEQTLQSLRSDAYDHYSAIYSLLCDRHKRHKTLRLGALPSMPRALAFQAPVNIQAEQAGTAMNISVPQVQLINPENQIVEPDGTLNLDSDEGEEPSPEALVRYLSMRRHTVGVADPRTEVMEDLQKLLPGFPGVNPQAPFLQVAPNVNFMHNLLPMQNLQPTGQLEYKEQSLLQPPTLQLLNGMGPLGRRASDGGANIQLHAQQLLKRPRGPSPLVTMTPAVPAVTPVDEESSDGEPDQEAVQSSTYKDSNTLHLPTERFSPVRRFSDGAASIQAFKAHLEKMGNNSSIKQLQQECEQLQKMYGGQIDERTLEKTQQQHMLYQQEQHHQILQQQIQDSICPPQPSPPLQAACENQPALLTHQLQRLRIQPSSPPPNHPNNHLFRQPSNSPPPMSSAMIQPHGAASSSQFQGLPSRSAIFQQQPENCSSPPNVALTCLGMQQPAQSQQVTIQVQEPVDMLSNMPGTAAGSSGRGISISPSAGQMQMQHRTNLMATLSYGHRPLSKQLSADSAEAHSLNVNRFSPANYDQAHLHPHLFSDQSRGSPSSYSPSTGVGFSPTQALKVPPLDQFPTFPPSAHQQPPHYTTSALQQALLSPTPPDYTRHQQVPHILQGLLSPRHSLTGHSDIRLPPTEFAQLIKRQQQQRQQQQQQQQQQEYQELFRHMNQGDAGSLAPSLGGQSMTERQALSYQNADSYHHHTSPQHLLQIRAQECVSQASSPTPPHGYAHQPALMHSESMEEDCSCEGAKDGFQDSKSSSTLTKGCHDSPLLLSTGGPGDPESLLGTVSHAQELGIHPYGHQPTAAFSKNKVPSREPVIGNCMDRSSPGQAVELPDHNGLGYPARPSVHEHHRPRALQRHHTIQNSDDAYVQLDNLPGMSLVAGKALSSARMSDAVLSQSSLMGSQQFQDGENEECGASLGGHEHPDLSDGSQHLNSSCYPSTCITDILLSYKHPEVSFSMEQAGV
T6 sequence (Q14680 whole entry): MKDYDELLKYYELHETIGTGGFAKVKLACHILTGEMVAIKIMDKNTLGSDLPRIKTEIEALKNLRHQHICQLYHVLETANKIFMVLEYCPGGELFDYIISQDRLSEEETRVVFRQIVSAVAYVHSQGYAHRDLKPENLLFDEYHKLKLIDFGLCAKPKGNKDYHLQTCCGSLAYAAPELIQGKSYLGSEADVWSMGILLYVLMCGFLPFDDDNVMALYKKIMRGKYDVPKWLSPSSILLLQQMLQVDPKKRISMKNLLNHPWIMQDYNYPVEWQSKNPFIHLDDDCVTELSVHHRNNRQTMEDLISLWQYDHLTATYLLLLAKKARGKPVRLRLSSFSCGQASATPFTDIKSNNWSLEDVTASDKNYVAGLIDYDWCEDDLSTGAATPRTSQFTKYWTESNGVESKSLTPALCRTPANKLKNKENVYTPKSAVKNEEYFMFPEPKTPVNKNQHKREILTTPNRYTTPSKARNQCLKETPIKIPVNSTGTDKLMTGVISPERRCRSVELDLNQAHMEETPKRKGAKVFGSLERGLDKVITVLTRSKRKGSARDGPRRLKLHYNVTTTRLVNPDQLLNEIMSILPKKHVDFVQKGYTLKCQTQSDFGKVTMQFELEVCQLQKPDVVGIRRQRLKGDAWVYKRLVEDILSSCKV
T3 sequence (Q08345 19-913): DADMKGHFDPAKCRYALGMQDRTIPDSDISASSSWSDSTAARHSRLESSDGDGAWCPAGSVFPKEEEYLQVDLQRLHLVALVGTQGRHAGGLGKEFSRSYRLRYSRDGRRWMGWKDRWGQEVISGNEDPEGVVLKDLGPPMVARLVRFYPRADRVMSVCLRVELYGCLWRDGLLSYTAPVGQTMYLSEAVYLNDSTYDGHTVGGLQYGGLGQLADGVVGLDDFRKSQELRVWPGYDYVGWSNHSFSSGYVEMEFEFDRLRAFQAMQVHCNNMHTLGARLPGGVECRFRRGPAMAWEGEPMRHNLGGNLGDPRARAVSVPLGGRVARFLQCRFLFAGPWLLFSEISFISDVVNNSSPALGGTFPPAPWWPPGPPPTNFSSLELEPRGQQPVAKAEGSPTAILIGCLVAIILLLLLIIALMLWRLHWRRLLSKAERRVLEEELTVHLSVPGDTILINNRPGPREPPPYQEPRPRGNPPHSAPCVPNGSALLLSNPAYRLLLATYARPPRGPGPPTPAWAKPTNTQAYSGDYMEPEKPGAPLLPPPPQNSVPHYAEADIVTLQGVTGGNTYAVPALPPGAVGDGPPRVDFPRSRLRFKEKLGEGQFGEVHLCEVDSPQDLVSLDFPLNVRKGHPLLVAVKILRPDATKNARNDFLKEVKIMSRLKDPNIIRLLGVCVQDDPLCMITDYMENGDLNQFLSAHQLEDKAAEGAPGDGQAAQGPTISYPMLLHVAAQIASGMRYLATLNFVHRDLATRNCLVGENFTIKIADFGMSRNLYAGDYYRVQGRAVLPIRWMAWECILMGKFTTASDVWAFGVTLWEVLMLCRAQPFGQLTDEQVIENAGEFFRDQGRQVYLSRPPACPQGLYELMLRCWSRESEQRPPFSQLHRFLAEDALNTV
T5 sequence (O43683 whole entry): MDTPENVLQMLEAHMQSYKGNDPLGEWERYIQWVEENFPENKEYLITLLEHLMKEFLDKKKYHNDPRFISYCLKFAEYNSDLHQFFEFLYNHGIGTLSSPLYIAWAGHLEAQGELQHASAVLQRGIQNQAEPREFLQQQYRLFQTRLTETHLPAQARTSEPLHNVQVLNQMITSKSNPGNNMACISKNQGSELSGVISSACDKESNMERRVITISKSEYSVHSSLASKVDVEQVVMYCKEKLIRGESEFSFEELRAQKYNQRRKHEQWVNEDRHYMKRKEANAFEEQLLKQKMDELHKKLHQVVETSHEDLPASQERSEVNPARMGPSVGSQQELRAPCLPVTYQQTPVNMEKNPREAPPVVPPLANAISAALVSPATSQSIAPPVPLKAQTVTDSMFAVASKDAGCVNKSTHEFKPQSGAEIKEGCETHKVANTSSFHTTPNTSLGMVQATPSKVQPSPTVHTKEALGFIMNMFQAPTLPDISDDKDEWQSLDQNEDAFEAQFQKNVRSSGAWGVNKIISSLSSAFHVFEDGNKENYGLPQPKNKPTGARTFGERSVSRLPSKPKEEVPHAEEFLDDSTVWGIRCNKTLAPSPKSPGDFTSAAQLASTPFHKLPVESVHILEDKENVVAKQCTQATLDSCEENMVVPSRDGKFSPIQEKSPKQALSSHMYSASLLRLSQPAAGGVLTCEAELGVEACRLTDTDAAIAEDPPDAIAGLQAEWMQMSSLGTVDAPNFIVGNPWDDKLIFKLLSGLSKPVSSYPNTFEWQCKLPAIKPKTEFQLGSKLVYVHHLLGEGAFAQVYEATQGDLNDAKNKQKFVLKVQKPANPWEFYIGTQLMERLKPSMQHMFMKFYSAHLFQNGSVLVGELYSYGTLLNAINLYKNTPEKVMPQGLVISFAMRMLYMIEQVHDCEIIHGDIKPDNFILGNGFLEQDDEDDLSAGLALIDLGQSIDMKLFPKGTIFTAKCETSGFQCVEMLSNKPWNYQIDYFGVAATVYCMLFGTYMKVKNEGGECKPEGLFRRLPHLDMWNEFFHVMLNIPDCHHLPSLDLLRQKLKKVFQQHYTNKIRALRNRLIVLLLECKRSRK
T2 sequence (P36894 24-532): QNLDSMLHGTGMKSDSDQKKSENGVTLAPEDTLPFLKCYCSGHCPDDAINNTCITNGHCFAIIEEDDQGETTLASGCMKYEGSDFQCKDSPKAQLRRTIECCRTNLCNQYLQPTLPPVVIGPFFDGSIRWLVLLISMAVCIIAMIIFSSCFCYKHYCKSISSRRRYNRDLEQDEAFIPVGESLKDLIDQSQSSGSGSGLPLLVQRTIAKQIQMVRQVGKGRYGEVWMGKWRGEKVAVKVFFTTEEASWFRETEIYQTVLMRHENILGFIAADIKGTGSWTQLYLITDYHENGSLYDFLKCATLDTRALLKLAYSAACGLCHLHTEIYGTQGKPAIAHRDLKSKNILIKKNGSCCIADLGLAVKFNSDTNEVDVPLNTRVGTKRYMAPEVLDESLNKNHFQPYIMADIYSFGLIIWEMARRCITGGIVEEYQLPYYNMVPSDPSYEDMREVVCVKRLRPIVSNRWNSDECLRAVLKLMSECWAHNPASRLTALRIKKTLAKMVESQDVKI

For `N#CCc1ccc(Nc2nc(NCCCN)cc(Nc3cc(C4CC4)[nH]n3)n2)cc1` [KAM], the “median Log10 fold change” value ([1]; 0.001 uM KAM) was -0.03137, the “median Log10 fold change” value ([1]; 0.01 uM KAM) was -0.03807 and the “median Log10 fold change” value ([1]; 0.1 uM KAM) was -0.2019. For the same compound, the “median Log10 fold change” value ([1]; 1 uM KAM) was -0.4109, the “median Log10 fold change” value ([1]; 10 uM KAM) was -0.5049 and the IC50 [1, 8] was 424 nM. For the same compound, the “median Log10 fold change” value ([2]; 0.001 uM KAM) was -0.03052, the “median Log10 fold change” value ([2]; 0.01 uM KAM) was -0.01848 and the “median Log10 fold change” value ([2]; 0.1 uM KAM) was -0.1062. For the same compound, the “median Log10 fold change” value ([2]; 1 uM KAM) was -0.2213, the “median Log10 fold change” value ([2]; 10 uM KAM) was -0.3941 and the IC50 [2, 8] was 2700 nM. The “median Log10 fold change” value ([3]; 0.001 uM KAM) was -0.02436, the “median Log10 fold change” value ([3]; 0.01 uM KAM) was -0.004539 and the “median Log10 fold change” value ([3]; 0.1 uM KAM) was -0.13. The “median Log10 fold change” value ([3]; 1 uM KAM) was -0.3025, the “median Log10 fold change” value ([3]; 10 uM KAM) was -0.3889 and the IC50 [3, 8] was 1330 nM. For the same compound, the IC50 [4, 9] was greater than 10000 nM, the “0.001 uM KAM” value ([4]; relative to 0 uM KAM = 0) was -0.07223 and the “0.01 uM KAM” value ([4]; relative to 0 uM KAM = 0) was -0.0771. The “0.1 uM KAM” value ([4]; relative to 0 uM KAM = 0) was -0.08847, the “1 uM KAM” value ([4]; relative to 0 uM KAM = 0) was -0.01623 and the “10 uM KAM” value ([4]; relative to 0 uM KAM = 0) was -0.07209. The IC50 [5, 9] was greater than 10000 nM, the “0.001 uM KAM” value ([5]; relative to 0 uM KAM = 0) was -0.05097 and the “0.01 uM KAM” value ([5]; relative to 0 uM KAM = 0) was -0.002823. The “0.1 uM KAM” value ([5]; relative to 0 uM KAM = 0) was -0.07998, the “1 uM KAM” value ([5]; relative to 0 uM KAM = 0) was -0.1399 and the “10 uM KAM” value ([5]; relative to 0 uM KAM = 0) was -0.1894. For the same compound, the “median Log10 fold change” value ([6]; 0.001 uM KAM) was -0.02147, the “median Log10 fold change” value ([6]; 0.01 uM KAM) was 0.005817 and the “median Log10 fold change” value ([6]; 0.1 uM KAM) was -0.06915. For the same compound, the “median Log10 fold change” value ([6]; 1 uM KAM) was -0.3528, the “median Log10 fold change” value ([6]; 10 uM KAM) was -0.5701 and the IC50 [6, 8] was 940 nM. For the same compound, the IC50 [7, 9] was greater than 10000 nM, the “0.001 uM KAM” value ([7]; relative to 0 uM KAM = 0) was -0.002123 and the “0.01 uM KAM” value ([7]; relative to 0 uM KAM = 0) was 0.01622. For the same compound, the “0.1 uM KAM” value ([7]; relative to 0 uM KAM = 0) was 0.01541, the “1 uM KAM” value ([7]; relative to 0 uM KAM = 0) was 0.07708 and the “10 uM KAM” value ([7]; relative to 0 uM KAM = 0) was 0.05031.
